In US11713338B2, “Cyclic peptides multimers targeting α-4-β-7 integrin” (priority 2016, dated 2023):
Where two headings read alike, the source gives them in different places.

Legend:
[1] = target: T1, recombinant integrin α4β1 (Homo sapiens, UniProt P05556+P13612); assay: Integrin α4β1—VCAM-1 competition ELISA; assay type: binding; conditions: for ELISA Assay Ratio β1/β7: ratio of ELISA IC50s, α4β1 over α4β7; for IC50: read-out: ELISA α4β1 Assay IC50
T1 construct: purchased R&D Systems 5397-A3-050
T1 sequence (P05556 21-728 limits assumed, one chain of several): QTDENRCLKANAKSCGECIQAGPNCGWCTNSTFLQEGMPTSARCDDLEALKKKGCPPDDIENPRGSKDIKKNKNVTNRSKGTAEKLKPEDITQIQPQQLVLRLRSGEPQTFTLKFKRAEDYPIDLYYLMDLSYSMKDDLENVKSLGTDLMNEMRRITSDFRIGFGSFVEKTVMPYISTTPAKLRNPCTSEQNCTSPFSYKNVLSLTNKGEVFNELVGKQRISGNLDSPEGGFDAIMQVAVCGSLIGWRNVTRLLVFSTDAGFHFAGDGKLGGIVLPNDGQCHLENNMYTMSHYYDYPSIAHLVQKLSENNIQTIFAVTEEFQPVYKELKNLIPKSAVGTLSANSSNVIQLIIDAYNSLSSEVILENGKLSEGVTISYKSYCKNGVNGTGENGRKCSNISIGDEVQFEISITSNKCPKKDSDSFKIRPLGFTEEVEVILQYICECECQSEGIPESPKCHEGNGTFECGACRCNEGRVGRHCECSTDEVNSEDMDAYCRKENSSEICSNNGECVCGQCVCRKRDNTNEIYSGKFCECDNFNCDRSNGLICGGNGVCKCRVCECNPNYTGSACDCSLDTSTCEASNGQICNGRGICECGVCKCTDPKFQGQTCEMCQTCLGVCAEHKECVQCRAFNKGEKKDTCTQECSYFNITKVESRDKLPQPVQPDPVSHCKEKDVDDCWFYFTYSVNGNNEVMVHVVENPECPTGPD
Procedure, shortened: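 Detection of bound ligand used HRP-conjugated anti-human IgG Fc, 1 h with agitation at room temperature. This followed a 2 h room-temperature, 300 rpm equilibration of compound in the coated wells. Washes were done in 50 mM Tris, 100 mM NaCl, 1 mM MnCl2, 0.05% Tween.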

[2] = target: T2, integrin α4β1 (RAMOS human cells adhering to VCAM-1) (Homo sapiens, UniProt P05556+P13612); assay: Integrin α4β1-VCAM cell adhesion assay (RAMOS cells); assay type: cell-based
T2 construct: Ramos cells, which express integrin α4β1; host or cells: RAMOS
T2 sequence (P13612 34-1032): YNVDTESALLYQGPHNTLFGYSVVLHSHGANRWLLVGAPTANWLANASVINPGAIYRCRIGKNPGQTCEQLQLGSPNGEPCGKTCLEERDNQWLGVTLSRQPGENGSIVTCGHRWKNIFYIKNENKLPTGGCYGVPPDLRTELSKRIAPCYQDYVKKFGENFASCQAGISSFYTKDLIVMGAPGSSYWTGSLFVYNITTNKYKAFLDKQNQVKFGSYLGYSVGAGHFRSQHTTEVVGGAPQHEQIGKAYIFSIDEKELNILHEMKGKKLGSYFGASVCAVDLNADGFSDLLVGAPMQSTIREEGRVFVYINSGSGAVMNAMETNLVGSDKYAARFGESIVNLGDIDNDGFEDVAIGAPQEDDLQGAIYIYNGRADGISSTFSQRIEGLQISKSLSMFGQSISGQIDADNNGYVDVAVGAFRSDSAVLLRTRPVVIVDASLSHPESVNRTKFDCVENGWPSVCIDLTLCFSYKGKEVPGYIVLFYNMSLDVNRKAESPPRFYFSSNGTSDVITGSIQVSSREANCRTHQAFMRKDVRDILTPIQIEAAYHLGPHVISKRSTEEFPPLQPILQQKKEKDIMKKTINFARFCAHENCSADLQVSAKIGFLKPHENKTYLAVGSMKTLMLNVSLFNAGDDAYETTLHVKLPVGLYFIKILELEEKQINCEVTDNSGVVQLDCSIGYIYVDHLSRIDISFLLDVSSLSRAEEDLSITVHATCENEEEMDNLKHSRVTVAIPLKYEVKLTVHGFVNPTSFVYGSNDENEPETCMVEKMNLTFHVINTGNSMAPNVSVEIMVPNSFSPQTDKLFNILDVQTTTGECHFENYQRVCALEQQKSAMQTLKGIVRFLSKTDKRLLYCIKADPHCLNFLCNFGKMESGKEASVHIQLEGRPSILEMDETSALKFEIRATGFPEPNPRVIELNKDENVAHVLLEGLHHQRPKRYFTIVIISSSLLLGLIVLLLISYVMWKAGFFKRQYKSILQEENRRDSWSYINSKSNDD
T2 sequence (P05556 21-798): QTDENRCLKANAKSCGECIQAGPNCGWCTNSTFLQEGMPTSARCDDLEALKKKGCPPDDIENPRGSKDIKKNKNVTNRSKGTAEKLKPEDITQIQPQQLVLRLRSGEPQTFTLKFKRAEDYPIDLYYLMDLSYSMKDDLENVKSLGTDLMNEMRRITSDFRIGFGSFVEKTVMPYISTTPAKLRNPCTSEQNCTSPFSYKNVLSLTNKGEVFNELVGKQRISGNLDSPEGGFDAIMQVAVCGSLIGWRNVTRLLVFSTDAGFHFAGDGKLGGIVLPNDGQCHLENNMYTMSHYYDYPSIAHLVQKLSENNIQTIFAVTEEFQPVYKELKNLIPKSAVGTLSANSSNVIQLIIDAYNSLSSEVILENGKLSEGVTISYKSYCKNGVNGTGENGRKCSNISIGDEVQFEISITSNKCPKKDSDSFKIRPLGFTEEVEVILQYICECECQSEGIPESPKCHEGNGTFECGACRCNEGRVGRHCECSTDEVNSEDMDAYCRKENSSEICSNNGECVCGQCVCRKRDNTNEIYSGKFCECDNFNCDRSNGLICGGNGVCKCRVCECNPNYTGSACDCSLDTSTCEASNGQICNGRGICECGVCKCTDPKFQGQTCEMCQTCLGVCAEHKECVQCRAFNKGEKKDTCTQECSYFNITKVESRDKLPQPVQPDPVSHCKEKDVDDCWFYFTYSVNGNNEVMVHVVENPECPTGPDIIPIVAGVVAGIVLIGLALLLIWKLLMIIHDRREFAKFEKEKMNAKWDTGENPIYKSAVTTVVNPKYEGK
Method: Integrin α4β1-VCAM Cell Adhesion Assay
The plate was incubated overnight at 4° C. and washed twice with 150 μl per well wash buffer (0.05% Tween 20 in PBS), blocked with 250 μl per well blocking buffer (1% non-fat dry milk in PBS), for 1 hour at room temperature. During blocking step, RAMOS cells were resuspended at 10 million cells/ml in PBS containing […] and incubated at 37° C. for 30 min in a 50 ml tube. […] The plate was emptied by inverting and blotting on paper towels and washed manually twice with PBS. […] To calculate the dose response, the fluorescence value of control wells not containing cells was subtracted from each test well.

[3] = target: T3, recombinant integrin α4β7 (Homo sapiens, UniProt P13612+P26010, DEL724-798); assay: Integrin α4β7—MAdCAM-1 ELISA competition assay; assay type: binding; conditions: read-out: ELISA α4β7 Assay IC50
T3 construct: purchased R&D Systems 5397-A3-050
T3 sequence (P13612 34-970 limits assumed): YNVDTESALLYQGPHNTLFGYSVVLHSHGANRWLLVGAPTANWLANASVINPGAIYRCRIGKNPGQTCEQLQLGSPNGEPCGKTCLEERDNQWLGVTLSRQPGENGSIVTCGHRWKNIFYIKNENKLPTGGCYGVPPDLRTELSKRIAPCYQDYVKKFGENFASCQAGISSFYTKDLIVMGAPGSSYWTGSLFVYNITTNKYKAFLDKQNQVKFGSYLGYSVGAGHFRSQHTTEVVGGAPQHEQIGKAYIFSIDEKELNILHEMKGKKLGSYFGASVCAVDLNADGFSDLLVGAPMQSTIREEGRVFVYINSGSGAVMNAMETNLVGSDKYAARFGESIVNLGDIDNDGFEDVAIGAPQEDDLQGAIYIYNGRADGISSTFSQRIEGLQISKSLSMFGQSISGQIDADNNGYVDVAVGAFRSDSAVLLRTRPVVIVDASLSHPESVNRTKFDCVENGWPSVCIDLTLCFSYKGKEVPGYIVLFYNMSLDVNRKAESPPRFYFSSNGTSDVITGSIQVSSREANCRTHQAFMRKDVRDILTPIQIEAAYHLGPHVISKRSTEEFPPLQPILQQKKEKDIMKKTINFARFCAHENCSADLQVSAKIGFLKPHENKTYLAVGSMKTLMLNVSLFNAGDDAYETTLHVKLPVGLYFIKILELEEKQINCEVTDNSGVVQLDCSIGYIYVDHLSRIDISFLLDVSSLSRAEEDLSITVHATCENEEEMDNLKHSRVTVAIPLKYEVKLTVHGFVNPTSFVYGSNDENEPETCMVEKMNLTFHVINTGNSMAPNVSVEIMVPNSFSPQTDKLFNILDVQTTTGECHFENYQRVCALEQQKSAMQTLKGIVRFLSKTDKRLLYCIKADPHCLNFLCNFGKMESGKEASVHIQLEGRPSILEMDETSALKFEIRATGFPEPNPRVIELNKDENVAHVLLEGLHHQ
T3 sequence (P26010 20-723 limits assumed): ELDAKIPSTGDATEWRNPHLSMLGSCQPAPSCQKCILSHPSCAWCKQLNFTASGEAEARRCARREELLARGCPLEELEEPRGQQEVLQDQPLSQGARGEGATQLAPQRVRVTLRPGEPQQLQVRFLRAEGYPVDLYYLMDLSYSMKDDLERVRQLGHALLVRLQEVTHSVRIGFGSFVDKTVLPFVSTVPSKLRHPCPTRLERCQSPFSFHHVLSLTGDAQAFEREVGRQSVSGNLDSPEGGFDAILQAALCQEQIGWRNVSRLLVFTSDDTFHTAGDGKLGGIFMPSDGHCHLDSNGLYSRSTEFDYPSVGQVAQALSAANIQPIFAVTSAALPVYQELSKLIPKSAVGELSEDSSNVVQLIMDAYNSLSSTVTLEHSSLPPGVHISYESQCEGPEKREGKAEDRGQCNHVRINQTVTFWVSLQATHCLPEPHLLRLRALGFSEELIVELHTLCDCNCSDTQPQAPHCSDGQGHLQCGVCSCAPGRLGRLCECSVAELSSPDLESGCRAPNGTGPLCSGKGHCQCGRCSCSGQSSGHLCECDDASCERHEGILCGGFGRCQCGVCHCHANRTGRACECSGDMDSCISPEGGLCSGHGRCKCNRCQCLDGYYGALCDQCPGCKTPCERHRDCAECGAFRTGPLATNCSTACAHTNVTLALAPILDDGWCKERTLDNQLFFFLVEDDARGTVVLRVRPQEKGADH
Method: Integrin α4β7—MAdCAM-1 ELISA Competition Assay
The plate was incubated at 40C overnight. […] The plate was then incubated for 1 hour at room temperature. The plate was washed three times with wash buffer (50 mM Tris, 100 mM NaCl, 1 mM MnCl2, 0.05% Tween). To each well, 50 μl of compound diluted in assay buffer was added by transfer from a compound serial dilution plate. […] The plate was incubated at room temperature with shaking (300 rpm) for 2 hours to reach binding equilibrium. […] The plate was incubated at room temperature for 1 hour under agitation.

[4] = Ramos cells adhering to VCAM, read-out: Ramos Adhesion α4β1/VCAM IC50
[5] = ratio of cell adhesion IC50s, Ramos α4β1/VCAM over RPMI8866 α4β7/MAdCAM

Structure (SMILES)	ELISA Assay Ratio β1/β7 [1]	IC50 [1]	IC50 [2, 4]	IC50 [3]	further results
CC(C)C[C@@H]1NC(=O)C[C@H](CCCCN)N(C)C(=O)[C@H](CCCCNC(=O)c2cc(C(=O)NCCCC[C@@H]3NC(=O)[C@@H]4CCCN4[C@H](C(=O)NC(C)(C)C)[C@H](C)NC(=O)[C@H]([C@@H](C)O)NC(=O)[C@H](CC(=O)O)NC(=O)[C@H](CC(C)C)NC(=O)C[C@H](CCCCN)N(C)C3=O)cc(C(=O)NCCCC[C@@H]3NC(=O)[C@@H]4CCCN4[C@H](C(=O)NC(C)(C)C)[C@H](C)NC(=O)[C@H]([C@@H](C)O)NC(=O)[C@H](CC(=O)O)NC(=O)[C@H](CC(C)C)NC(=O)C[C@H](CCCCN)N(C)C3=O)c2)NC(=O)[C@@H]2CCCN2[C@H](C(=O)NC(C)(C)C)[C@H](C)NC(=O)[C@H]([C@@H](C)O)NC(=O)[C@H](CC(=O)O)NC1=O [Compound 538]	1.3	13 nM	7650 nM	10 nM	
CC(C)C[C@@H]1NC(=O)C[C@H](CCCCN)N(C)C(=O)[C@H](CCCCNC(=O)CCCCCCCC(=O)NCCCC[C@@H]2NC(=O)[C@@H]3CCCN3[C@H](C(=O)NC(C)(C)C)[C@H](C)NC(=O)[C@H]([C@@H](C)O)NC(=O)[C@H](CC(=O)O)NC(=O)[C@H](CC(C)C)NC(=O)C[C@H](CCCCN)N(C)C2=O)NC(=O)[C@@H]2CCCN2[C@H](C(=O)NC(C)(C)C)[C@H](C)NC(=O)[C@H]([C@@H](C)O)NC(=O)[C@H](CC(=O)O)NC1=O [Compound 533]	1.2	6.2 nM	4230 nM	5 nM	Ratio Ramos/RPMI [2, 5]: 257
CC(C)C[C@@H]1NC(=O)c2ccc(-c3ccc(N4CCN(Cc5cc(CN6CCN(c7ccc(-c8ccc9cc8CNC(=O)[C@@H]8CCCN8[C@H](C(=O)NC(C)(C)C)[C@H](C)NC(=O)[C@H]([C@@H](C)O)NC(=O)[C@H](CC(=O)O)NC(=O)[C@H](CC(C)C)NC9=O)cc7)CC6)cc(CN6CCN(c7ccc(-c8ccc9cc8CNC(=O)[C@@H]8CCCN8[C@H](C(=O)NC(C)(C)C)[C@H](C)NC(=O)[C@H]([C@@H](C)O)NC(=O)[C@H](CC(=O)O)NC(=O)[C@H](CC(C)C)NC9=O)cc7)CC6)c5)CC4)cc3)c(c2)CNC(=O)[C@@H]2CCCN2[C@H](C(=O)NC(C)(C)C)[C@H](C)NC(=O)[C@H]([C@@H](C)O)NC(=O)[C@H](CC(=O)O)NC1=O [Compound 518]		8.7 nM	947 nM	36 nM	
CC(C)C[C@@H]1NC(=O)c2ccc(-c3ccc(N4CCN(CCC(=O)N5CCN(c6ccc(-c7ccc8cc7CNC(=O)[C@@H]7CCCN7[C@H](C(=O)NC(C)(C)C)[C@H](C)NC(=O)[C@H]([C@@H](C)O)NC(=O)[C@H](CC(=O)O)NC(=O)[C@H](CC(C)C)NC8=O)cc6)CC5)CC4)cc3)c(c2)CNC(=O)[C@@H]2CCCN2[C@H](C(=O)NC(C)(C)C)[C@H](C)NC(=O)[C@H]([C@@H](C)O)NC(=O)[C@H](CC(=O)O)NC1=O [Compound 482]		1.5 nM	825 nM		
CC(C)C[C@@H]1NC(=O)c2ccc(-c3ccc(N4CCN(C(=O)c5ccc(-c6ccc(C(=O)N7CCN(c8ccc(-c9ccc%10cc9CNC(=O)[C@@H]9CCCN9[C@H](C(=O)NC(C)(C)C)[C@H](C)NC(=O)[C@H]([C@@H](C)O)NC(=O)[C@H](CC(=O)O)NC(=O)[C@H](CC(C)C)NC%10=O)cc8)CC7)cc6)cc5)CC4)cc3)c(c2)CNC(=O)[C@@H]2CCCN2[C@H](C(=O)NC(C)(C)C)[C@H](C)NC(=O)[C@H]([C@@H](C)O)NC(=O)[C@H](CC(=O)O)NC1=O [Compound 474]	0.4	7.1 nM	1300 nM	19 nM	Ratio Ramos/RPMI [2, 5]: 95
CC(C)C[C@@H]1NC(=O)c2ccc(-c3ccc(N4CCN(C(=O)c5ccccc5-c5ccccc5C(=O)N5CCN(c6ccc(-c7ccc8cc7CNC(=O)[C@@H]7CCCN7[C@H](C(=O)NC(C)(C)C)[C@H](C)NC(=O)[C@H]([C@@H](C)O)NC(=O)[C@H](CC(=O)O)NC(=O)[C@H](CC(C)C)NC8=O)cc6)CC5)CC4)cc3)c(c2)CNC(=O)[C@@H]2CCCN2[C@H](C(=O)NC(C)(C)C)[C@H](C)NC(=O)[C@H]([C@@H](C)O)NC(=O)[C@H](CC(=O)O)NC1=O [Compound 517]		2.1 nM		7.5 nM	
CC(C)C[C@@H]1NC(=O)C[C@H](CCCCN)N(C)C(=O)[C@H](CCCCN)NC(=O)[C@@H]2CCCN2[C@H](C(=O)NC(C)(C)C)[C@H](C)NC(=O)[C@H]([C@@H](C)O)NC(=O)[C@H](CC(=O)O)NC1=O [Compound 456]					ELISA Assay Ratio b1/b7 ([1]; ratio of ELISA IC50 b1 to b7): 1.5; selectivity α4β7 versus α4β1 cell adhesion assays ([2]; RPMI8866 vs Ramos cell adhesion): 45 fold; IC50 ([2]; Ramos cells, VCAM, read-out: Ramos Adhesion a4b1/VCAM IC50): 8920 nM; Ratio Ramos/RPMI ([2]; ratio of Ramos a4b1/VCAM adhesion IC50 to RPMI8866 a4b7/MAdCAM adhesion IC50): 45
CC(C)C[C@@H]1NC(=O)c2ccc(-c3ccc(N4CCN(C(=O)c5cc(F)ccc5-c5ccc(F)cc5C(=O)N5CCN(c6ccc(-c7ccc8cc7CNC(=O)[C@@H]7CCCN7[C@H](C(=O)NC(C)(C)C)[C@H](C)NC(=O)[C@H]([C@@H](C)O)NC(=O)[C@H](CC(=O)O)NC(=O)[C@H](CC(C)C)NC8=O)cc6)CC5)CC4)cc3)c(c2)CNC(=O)[C@@H]2CCCN2[C@H](C(=O)NC(C)(C)C)[C@H](C)NC(=O)[C@H]([C@@H](C)O)NC(=O)[C@H](CC(=O)O)NC1=O [Compound 475]		1.1 nM		11 nM	
CC(C)C[C@@H]1NC(=O)c2ccc(-c3ccc(N4CCN(C(=O)CCC(=O)N5CCN(c6ccc(-c7ccc8cc7CNC(=O)[C@@H]7CCCN7[C@H](C(=O)NC(C)(C)C)[C@H](C)NC(=O)[C@H]([C@@H](C)O)NC(=O)[C@H](CC(=O)O)NC(=O)[C@H](CC(C)C)NC8=O)cc6)CC5)CC4)cc3)c(c2)CNC(=O)[C@@H]2CCCN2[C@H](C(=O)NC(C)(C)C)[C@H](C)NC(=O)[C@H]([C@@H](C)O)NC(=O)[C@H](CC(=O)O)NC1=O [Compound 484]		1.2 nM		5.6 nM	
CC(C)C[C@@H]1NC(=O)c2ccc(-c3ccc(N4CCN(C(=O)c5cc(C(=O)N6CCN(c7ccc(-c8ccc9cc8CNC(=O)[C@@H]8CCCN8[C@H](C(=O)NC(C)(C)C)[C@H](C)NC(=O)[C@H]([C@@H](C)O)NC(=O)[C@H](CC(=O)O)NC(=O)[C@H](CC(C)C)NC9=O)cc7)CC6)cc(C(=O)N6CCN(c7ccc(-c8ccc9cc8CNC(=O)[C@@H]8CCCN8[C@H](C(=O)NC(C)(C)C)[C@H](C)NC(=O)[C@H]([C@@H](C)O)NC(=O)[C@H](CC(=O)O)NC(=O)[C@H](CC(C)C)NC9=O)cc7)CC6)c5)CC4)cc3)c(c2)CNC(=O)[C@@H]2CCCN2[C@H](C(=O)NC(C)(C)C)[C@H](C)NC(=O)[C@H]([C@@H](C)O)NC(=O)[C@H](CC(=O)O)NC1=O [Compound 520]		1.2 nM		6.3 nM	
